Experiments:
[1] = tested on: all three classes of fusion proteins, including Zika, EBOV, influenza A virus (IAV), SFV, VEEV, VSV and EBV; format: cell-based; conditions: for fusion blocked: 10 μM
EBOV fusion protein = EBOV fusion protein (Zaire ebolavirus, UniProt Q05320); format: cell-based, Ebola
[2] = tested on: human Adenovirus Type 5 (dE1/E3) containing GFP (Ad-GFP); assay: Ad-GFP infection of HEp2 cells evaluated by fluorescent microscope; format: cell-based; conditions: 10 μM, HEp2, 20 MOI, 24 hours
HCMV-GFP = HCMV-GFP infection of HFF evaluated by fluorescent microscope; format: cell-based; conditions: 7 days
HSV-1 F' [3] = assay: GA added to already HSV-1 infected HEp2 and 293T cells, WB detection of HSV-1 proteins; format: cell-based; conditions: 10 μM added 2 hours after infection at 1 MOI
HSV-1 F' [4] = assay: HSV-1 stock pre-treated with GA, infection of HEp2 or 293T, western blotting of ICP27, ICP8, Us11; format: cell-based; conditions: 10 MOI stock treated 1 hour with 50 μM, diluted to 0.5 MOI / 2.5 μM; HEp2 and 293T; 5, 10 and 29 hours post-infection
ZIKV (strain PRVABC59) = assay: ZIKV infection of Normal Human Astrocytes, Zika viral RNA by Taqman real-time PCR; format: cell-based, Zika virus; conditions: 5 μM to 20 μM, day 7
[5] = tested on: two clinical isolates of HCMV; assay: HCMV plaque assay in human foreskin fibroblasts; format: cell-based; conditions: HFF, 0-10 μM GA C15:1, 7 days
[6] = tested on: HEp2, 293T, Human foreskin fibroblasts (HFF) and Normal Human Astrocytes (NHAs); assay: Toxicity of GA to the tested cells; conditions: at the active concentration (not shown)
HCMV = HCMV DNA copies in infected HFF by qPCR targeting the viral polymerase gene; format: cell-based; conditions: 7 dpi

EBOV fusion protein, sequence (Q05320 33-501 limits assumed): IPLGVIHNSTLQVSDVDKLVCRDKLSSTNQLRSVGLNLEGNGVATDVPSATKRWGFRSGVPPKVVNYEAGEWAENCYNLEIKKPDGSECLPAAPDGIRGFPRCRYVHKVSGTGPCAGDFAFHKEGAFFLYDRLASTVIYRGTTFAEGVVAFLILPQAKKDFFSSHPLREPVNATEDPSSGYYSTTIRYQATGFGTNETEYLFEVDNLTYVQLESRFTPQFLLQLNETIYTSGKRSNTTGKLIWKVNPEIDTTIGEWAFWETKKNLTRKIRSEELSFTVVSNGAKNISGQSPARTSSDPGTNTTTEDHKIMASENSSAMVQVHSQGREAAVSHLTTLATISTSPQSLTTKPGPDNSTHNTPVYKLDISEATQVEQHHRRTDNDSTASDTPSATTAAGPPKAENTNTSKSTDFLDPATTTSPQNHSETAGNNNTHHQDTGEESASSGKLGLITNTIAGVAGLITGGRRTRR
EBOV fusion protein, sequence (Q05320 502-676 limits assumed): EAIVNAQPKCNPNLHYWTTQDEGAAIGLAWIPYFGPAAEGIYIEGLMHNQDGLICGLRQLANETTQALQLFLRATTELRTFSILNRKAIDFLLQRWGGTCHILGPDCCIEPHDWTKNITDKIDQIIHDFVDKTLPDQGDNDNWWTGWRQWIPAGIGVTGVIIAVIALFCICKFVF

Compound | fusion blocked [1] | inhibition of Ebola mediated cell-cell fusion (EBOV fusion protein) | inhibition of nonenveloped Adenovirus infection [2] | effect on HCMV-GFP infection / plaque formation (HCMV-GFP; 10 μM) | further results
CCCCCCCCCCCCCc1cccc(O)c1C(=O)O [GA C13:0, Ginkgolic acid (GA) C13:0] | 100% | inhibition of Ebola mediated cell-cell fusion | did not inhibit | strong inhibitory effect on HCMV infection | –
CCCCCC/C=C\CCCCCCCc1cccc(O)c1C(=O)O [GA C15:1, ginkgolic acid C15:1] | 100% | inhibition of Ebola mediated cell-cell fusion | did not inhibit | only single cells were infected | HSV-1 protein synthesis in already infected cells (WB) (HSV-1 F' [3]): inhibiting the virus from that point; HSV-1 infection (ICP27, ICP8, Us11 by WB) (HSV-1 F' [4]): complete inhibition of the virus; decrease in Zika viral RNA levels (ZIKV (strain PRVABC59)): 80-90%; HCMV infectivity monitored by plaquing efficiency [5]: inhibited HCMV infectivity
CCCCCC/C=C\CCCCCCCCCc1cccc(O)c1C(=O)O [GA C17:1, Ginkgolic Acid C 17:1] | 100% | inhibition of Ebola mediated cell-cell fusion | did not inhibit | strong inhibitory effect on HCMV infection | –
Nc1nc(O)c2ncn(COC(CO)CO)c2n1 [GCV, Ganciclovir, reference compound] | – | – | – | – | effect on HCMV-GFP infection / plaque formation (HCMV-GFP; 16 μM GCV): very strong inhibition of the virus
Ginkgolic acid [GA] | – | – | – | – | fusion after GA was washed [1]: fusion was restored; fusion inhibition with oleic acid (OA) added together with GA [1]: abolished the inhibitory effect of GA; toxicity [6]: no toxicity at the active inhibitory range; reduction of viral DNA (HCMV; GA added 3 hours after infection): about 80%; HCMV DNA copies, dose dependence (HCMV; different concentrations of GA): reduced in a dose dependent manner
